Results published in patent publication US20080004302A1, “Novel Compounds” (ASTRAZENECA AB, priority 2006, published 2008).
Where two headings read alike, the source gives them in different places.

Columns and labels:
[1] = molecular target: T1, FGFR1 IIIc (Homo sapiens, UniProt P11362); assay: Cell based inhibition of transiently expressed FGFR1 IIIc phosphorylation via use of ECHO technology (Cos-1 cells)
T1 construct: host or cells: Cos-1

[2] = molecular target: T2, FGFR kinase domain (Homo sapiens, UniProt P11362, C488A/C584S); assay: Kinase assay (ELISA) for inhibition of FGFR activity; type: biochemical
T2 construct: FGFR kinase domain (amino acids 458-765, C488A, C584S) N-terminally fused to a His6-tag; made in house
T2 sequence (P11362 458-765 C488A/C584S): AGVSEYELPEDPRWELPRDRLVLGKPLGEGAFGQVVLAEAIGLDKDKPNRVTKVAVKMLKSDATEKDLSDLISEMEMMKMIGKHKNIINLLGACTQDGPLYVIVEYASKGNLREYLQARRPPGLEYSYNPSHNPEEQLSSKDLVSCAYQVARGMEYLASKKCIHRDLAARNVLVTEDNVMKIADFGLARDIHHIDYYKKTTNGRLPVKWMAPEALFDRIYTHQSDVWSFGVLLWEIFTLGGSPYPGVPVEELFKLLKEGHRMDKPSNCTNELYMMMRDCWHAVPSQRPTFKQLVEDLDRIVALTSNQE
Protocol: To determine inhibition of FGFR activity, kinase assays were conducted using ELISA (Enzyme-Linked Immunosorbent Assay) technology.
Kinase activity assays were performed in 384-well polypropylene plates (Matrix, 4311) with a total volume of 40 μl in each well. Each well was coated with 2 μg of polyEAY substrate (Sigma, P3899) at 4° C. overnight. The plates were then washed once with 100 μl PBS and once with 100 μl 50 mM HEPES (pH 7.4) prior to the addition of the kinase assay reagents. […] Various concentrations of test compounds were each added in 5% (v/v) DMSO to yield a final assay DMSO concentration of 1.25% (v/v). The kinase reactions were incubated at room temperature for 45 minutes and stopped by washing the plate three times with 100 μl PBS plus 0.05% Tween. […] Following this, the plates were then washed repeatedly with 100 μl PBS plus 0.05% Tween to remove all traces of the antibody solution. 40 μl of 50 μg/ml 3,3′,5,5′-Tetramethylbenzidine (Sigma, T2885), 0.05M phosphate-citrate buffer, containing 0.03% sodium perborate was added to each well and the plates incubated at room temperature for twelve minutes. The colour reaction was stopped by the addition of 20 μl 2M H2SO4 and the plates read at 450 nm on a Spectrafluor Plus (Tecan).

[3] = test system: Erk phosphorylation; assay: Growth factor (bFGF) stimulated Erk phosphorylation in NIH 3T3 cells; details: Mus musculus, NIH3T3, NIH 3T3 cells, 3 ng/ml bFGF
[4] = molecular target: T3, human IGF1R (Homo sapiens, UniProt P08069); assay: Inhibition of insulin-like growth factor-1 receptor phosphorylation in R+ cells; type: cell-based; details: 30 nM IGF1, read-out: IGF cell class
T3 construct: expressed in transfected cells; host or cells: R+ cells (R- mouse fibroblasts transfected with human IGF1R)
T3 sequence (P08069 31-1367): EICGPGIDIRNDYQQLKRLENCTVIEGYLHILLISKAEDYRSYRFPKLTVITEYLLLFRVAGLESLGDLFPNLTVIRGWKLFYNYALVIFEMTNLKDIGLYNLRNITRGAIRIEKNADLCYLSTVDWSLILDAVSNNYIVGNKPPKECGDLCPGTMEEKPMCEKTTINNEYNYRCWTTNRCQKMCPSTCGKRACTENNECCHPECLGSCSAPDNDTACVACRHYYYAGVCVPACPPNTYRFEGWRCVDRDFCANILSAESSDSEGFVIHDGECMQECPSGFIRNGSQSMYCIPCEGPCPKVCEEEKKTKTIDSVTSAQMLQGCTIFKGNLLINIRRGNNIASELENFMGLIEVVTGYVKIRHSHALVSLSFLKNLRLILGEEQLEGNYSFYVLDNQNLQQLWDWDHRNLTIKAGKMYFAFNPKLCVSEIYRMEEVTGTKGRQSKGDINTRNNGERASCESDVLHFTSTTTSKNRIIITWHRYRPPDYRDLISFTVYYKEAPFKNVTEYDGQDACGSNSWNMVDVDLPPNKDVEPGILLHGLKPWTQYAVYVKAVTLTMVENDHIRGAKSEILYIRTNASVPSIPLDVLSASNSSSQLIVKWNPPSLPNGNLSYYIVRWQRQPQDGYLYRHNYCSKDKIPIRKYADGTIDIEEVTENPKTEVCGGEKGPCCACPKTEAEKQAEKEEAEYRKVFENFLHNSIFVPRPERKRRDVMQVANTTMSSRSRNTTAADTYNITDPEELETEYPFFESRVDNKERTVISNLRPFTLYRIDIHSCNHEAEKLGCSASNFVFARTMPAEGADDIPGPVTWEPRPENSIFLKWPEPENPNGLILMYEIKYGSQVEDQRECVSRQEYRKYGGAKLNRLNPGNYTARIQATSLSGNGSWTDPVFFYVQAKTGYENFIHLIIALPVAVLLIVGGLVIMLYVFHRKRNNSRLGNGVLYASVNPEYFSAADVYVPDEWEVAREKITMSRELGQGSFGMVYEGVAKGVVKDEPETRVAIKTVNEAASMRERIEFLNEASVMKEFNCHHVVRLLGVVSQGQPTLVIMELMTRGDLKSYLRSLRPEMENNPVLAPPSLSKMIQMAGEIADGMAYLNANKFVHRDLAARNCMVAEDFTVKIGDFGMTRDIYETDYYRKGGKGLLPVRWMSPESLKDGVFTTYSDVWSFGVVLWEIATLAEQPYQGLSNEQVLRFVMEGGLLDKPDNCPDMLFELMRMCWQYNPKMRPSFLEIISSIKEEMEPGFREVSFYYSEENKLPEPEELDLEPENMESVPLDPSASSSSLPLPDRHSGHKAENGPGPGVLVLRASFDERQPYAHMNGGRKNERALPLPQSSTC

[5] = molecular target: T1, FGFR1 IIIc; assay: Cell based inhibition of transiently expressed FGFR1 IIIc phosphorylation (Cos-1 cells); details: Cos-1 cells, phospho-FGFR1; upper bound of bin; read-out: IC50
[6] = molecular target: FGFR1 kinase (Homo sapiens, UniProt P11362); assay: Kinase assay (using Caliper technology); type: biochemical; details: FGFR1 kinase, Caliper; upper bound of bin; read-out: IC50
Sequence of FGFR1 kinase (P11362 22-822): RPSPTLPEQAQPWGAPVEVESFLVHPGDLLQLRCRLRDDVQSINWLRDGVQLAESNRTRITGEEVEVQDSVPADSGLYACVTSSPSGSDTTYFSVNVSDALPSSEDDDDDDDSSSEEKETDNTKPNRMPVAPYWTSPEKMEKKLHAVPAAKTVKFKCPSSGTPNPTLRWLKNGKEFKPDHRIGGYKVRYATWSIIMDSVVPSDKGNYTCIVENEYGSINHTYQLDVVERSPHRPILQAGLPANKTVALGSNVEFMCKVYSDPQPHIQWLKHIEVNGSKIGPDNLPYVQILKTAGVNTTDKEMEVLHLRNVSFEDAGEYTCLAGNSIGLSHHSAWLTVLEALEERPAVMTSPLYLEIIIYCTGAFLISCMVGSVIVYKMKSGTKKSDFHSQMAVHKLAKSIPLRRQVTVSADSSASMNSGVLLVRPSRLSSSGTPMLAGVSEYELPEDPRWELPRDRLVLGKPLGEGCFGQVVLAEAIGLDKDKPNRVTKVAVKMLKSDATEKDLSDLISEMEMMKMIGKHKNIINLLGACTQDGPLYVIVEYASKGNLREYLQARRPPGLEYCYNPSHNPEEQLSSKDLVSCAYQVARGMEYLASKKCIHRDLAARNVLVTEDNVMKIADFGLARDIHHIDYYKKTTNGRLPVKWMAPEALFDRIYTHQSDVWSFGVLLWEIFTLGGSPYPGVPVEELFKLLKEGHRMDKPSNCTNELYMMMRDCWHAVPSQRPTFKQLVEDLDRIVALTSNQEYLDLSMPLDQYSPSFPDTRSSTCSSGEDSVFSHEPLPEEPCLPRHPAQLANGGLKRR
In short: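 Human FGFR1 kinase activity measured with a 13-mer fluorescently tagged FGFR1-specific peptide substrate; compounds serially diluted in 5% (v/v) DMSO. Reactions ran 1.5 h at room temperature, stopped with EDTA-containing HEPES pH 7.5 buffer. Phosphorylated and unphosphorylated peptide separated by microfluidic mobility shift.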

[7] = Cos-1 cells, phospho-FGFR1, ECHO dosing, upper bound of bin, read-out: IC50
[8] = FGFR inhibition tests, ELISA kinase assay, read-out: Activity class

T1 sequence (P11362 22-822): as above

Compound	IC50 [1, 7]	IC50 [2, 8]	IC50 [4]	IC50 [6]	also measured
CCCc1cc(Nc2ccnc(NCc3cc(C4CC4)no3)n2)n[nH]1 [Example 7, N-[(3-cyclopropyl-1,2-oxazol-5-yl)methyl]-N′-(5-propyl-2H-pyrazol-3-yl)pyrimidine-2,4-diamine]	< 0.2 µM	< 0.1 µM			
Cc1cc(CNc2nccc(Nc3cc(OCc4ccccc4)[nH]n3)n2)on1 [Example 72, N-[(3-methyl-1,2-oxazol-5-yl)methyl]-N′-(5-phenylmethoxy-1H-pyrazol-3-yl)pyrimidine-2,4-diamine]		0.1 to 1 µM			IC50 ([3]; upper bound of bin): < 1 µM
CCCc1cc(Nc2ccnc(NCc3cc(C(N)=O)no3)n2)n[nH]1 [Example 8, 5-[[[4-[(5-propyl-1H-pyrazol-3-yl)amino]pyrimidin-2-yl]amino]methyl]-1,2-oxazole-3-carboxamide]	< 1 µM	< 0.1 µM			
CCOCCCc1cc(Nc2ccnc(NCc3cc(C)no3)n2)n[nH]1 [Example 20, N′-[5-(3-ethoxypropyl)-2H-pyrazol-3-yl]-N-[(3-methyl-1,2-oxazol-5-yl)methyl]pyrimidine-2,4-diamine]	< 10 µM	0.1 to 1 µM			
Cc1cc(CNc2nccc(Nc3cc(OC(C)C)[nH]n3)n2)on1 [Example 66, N-[(3-methyl-1,2-oxazol-5-yl)methyl]-N′-(5-propan-2-yloxy-2H-pyrazol-3-yl)pyrimidine-2,4-diamine]	< 1 µM	< 0.1 µM	> 10 µM	< 0.2 µM	IC50 [3]: < 0.2 µM; IC50 [5]: < 1 µM
COc1ccc(CCc2cc(Nc3ccnc(NCc4cc(C)no4)n3)n[nH]2)cc1 [Example 24, N′-[5-[2-(4-methoxyphenyl)ethyl]-2H-pyrazol-3-yl]-N-[(3-methyl-1,2-oxazol-5-yl)methyl]pyrimidine-2,4-diamine]		0.1 to 1 µM	> 10 µM	< 1 µM	IC50 [5]: < 1 µM
Cc1cc(CNc2nc(C)cc(Nc3cc(OC(C)C)[nH]n3)n2)on1 [Example 68, 6-methyl-N-[(3-methyl-1,2-oxazol-5-yl)methyl]-N′-(5-propan-2-yloxy-1H-pyrazol-3-yl)pyrimidine-2,4-diamine]	< 0.2 µM	< 0.1 µM	> 10 µM	< 0.2 µM	
COc1cccc(CCc2cc(Nc3ccnc(NCc4cc(-c5ncccn5)no4)n3)[nH]n2)c1 [Example 33, N′-[5-[2-(3-methoxyphenyl)ethyl]-2H-pyrazol-3-yl]-N-[(3-pyrimidin-2-yl1,2-oxazol-5-yl)methyl]pyrimidine-2,4-diamine]			> 10 µM	< 0.2 µM	IC50 [3]: 0.518 µM; IC50 ([3]; upper bound of bin): < 1 µM; IC50 ([2]; stated after the ELISA results table, read-out: IC50): 0.092 µM
CCCc1cc(Nc2ccnc(NCc3cc(C)no3)n2)n[nH]1 [Example 6, N-[(3-methylisoxazol-5-yl)methyl]-N ′-(5-propyl-2H-pyrazol-3-yl)pyrimidine-2,4-diamine]	< 0.2 µM	< 0.1 µM	0.1 to 1 µM		
CCOCCCc1cc(Nc2ccnc(NCc3cc(C(N)=O)no3)n2)[nH]n1 [Example 22, 5-[[[4-[[5-(3-ethoxypropyl)-2H-pyrazol-3-yl]amino]pyrimidin-2-yl]amino]methyl]-1,2-oxazole-3-carboxamide]	< 30 µM	0.1 to 1 µM			
COc1cccc(CCc2cc(Nc3ccnc(NCc4cc(C(N)=O)no4)n3)[nH]n2)c1 [Example 29, 5-[[[4-[[5-[2-(3-methoxyphenyl)ethyl]-2H-pyrazol-3-yl]amino]pyrimidin-2-yl]amino]methyl]-1,2-oxazole-3-carboxamide]		< 0.1 µM	> 10 µM	< 0.2 µM	IC50 [5]: < 10 µM
Cc1cc(Nc2ccnc(NCc3cc(C4CC4)no3)n2)n[nH]1 [Example 3, N-[(3-cyclopropylisoxazol-5-yl)methyl]-N ′-(5-methyl-2H-pyrazol-3-yl)pyrimidine-2,4-diamine]	< 1 µM	< 0.1 µM	1 to 10 µM		IC50 [3]: < 0.2 µM; IC50 [5]: < 1 µM
COc1ccc(CCc2cc(Nc3ccnc(NCc4cc(C(N)=O)no4)n3)[nH]n2)cc1 [Example 26, 5-[[[4-[[5-[2-(4-methoxyphenyl)ethyl]-2H-pyrazol-3-yl]amino]pyrimidin-2-yl]amino]methyl]-1,2-oxazole-3-carboxamide]	< 10 µM	0.1 to 1 µM		< 1 µM	
COc1ccc(CCc2cc(Nc3ccnc(NCc4cc(C5CC5)no4)n3)n[nH]2)cc1 [Example 25, N-[(3-cyclopropyl-1,2-oxazol-5-yl)methyl]-N′-[5-[2-(4-methoxyphenyl)ethyl]-2H-pyrazol-3-yl]pyrimidine-2,4-diamine]	< 0.2 µM	0.1 to 1 µM		< 1 µM	
NC(=O)c1cc(CNc2nccc(Nc3cc(C4CC4)n[nH]3)n2)on1 [Example 11, 5-[[[4-[(5-cyclopropyl-2H-pyrazol-3-yl)amino]pyrimidin-2-yl]amino]methyl]-1,2-oxazole-3-carboxamide]	< 1 µM	< 0.1 µM	1 to 10 µM		
CCOCCCc1cc(Nc2ccnc(NCc3cc(C4CC4)no3)n2)[nH]n1 [Example 21, N-[(3-cyclopropyl-1,2-oxazol-5-yl)methyl]-N′-[5-(3-ethoxypropyl)-2H-pyrazol-3-yl]pyrimidine-2,4-diamine]	< 1 µM	< 0.1 µM			
Cc1cc(Nc2cc(OC(C)C)[nH]n2)nc(NCc2cc(C3CC3)no2)n1 [Example 69, N-[(3-cyclopropyl-1,2-oxazol-5-yl)methyl]-6-methyl-N′-(5-propan-2-yloxy-2H-pyrazol-3-yl)pyrimidine-2,4-diamine]	< 0.2 µM	< 0.1 µM		< 0.2 µM	
COc1cc(Nc2cc(OC(C)C)n[nH]2)nc(NCc2cc(C)no2)n1 [Example 70, 6-methoxy-N-[(3-methyl-1,2-oxazol-5-yl)methyl]-N′-(5-propan-2-yloxy-2H-pyrazol-3-yl)pyrimidine-2,4-diamine]	< 0.2 µM	< 0.1 µM	> 10 µM	< 0.2 µM	
COc1cccc(CCc2cc(Nc3ccnc(NCc4cc(C5CC5)no4)n3)n[nH]2)c1 [Example 28, N-[(3-cyclopropyl-1,2-oxazol-5-yl)methyl]-N′-[5-[2-(3-methoxyphenyl)ethyl]-2H-pyrazol-3-yl]pyrimidine-2,4-diamine]	< 0.2 µM	0.1 to 1 µM		< 0.2 µM	IC50 [5]: < 0.2 µM
Cc1cc(CN(C)c2nccc(Nc3cc(C)[nH]n3)n2)on1 [Example 2, N-methyl-N-[(3-methylisoxazol-5-yl)methyl]-N′-(5-methyl-2H-pyrazol-3-yl)pyrimidine-2,4-diamine]	< 1 µM	0.1 to 1 µM			
COc1cc(Nc2cc(OC(C)C)[nH]n2)nc(NCc2cc(C3CC3)no2)n1 [Example 71, N-[(3-cyclopropyl-1,2-oxazol-5-yl)methyl]-6-methoxy-N′-(5-propan-2-yloxy-2H-pyrazol-3-yl)pyrimidine-2,4-diamine]	< 0.2 µM	< 0.1 µM		< 0.2 µM	
c1cc(Nc2cc(C3CC3)[nH]n2)nc(NCc2cc(C3CC3)no2)n1 [Example 10, N-[(3-cyclopropyl-1,2-oxazol-5-yl)methyl]-N′-(5-cyclopropyl-2H-pyrazol-3-yl)pyrimidine-2,4-diamine]	< 0.2 µM	< 0.1 µM	0.1 to 1 µM		
COc1cccc(CCc2cc(Nc3ccnc(NCc4cc(C)no4)n3)n[nH]2)c1 [Example 27, N′-[5-[2-(3-methoxyphenyl)ethyl]-2H-pyrazol-3-yl]-N-[(3-methyl-1,2-oxazol-5-yl)methyl]pyrimidine-2,4-diamine]		< 0.1 µM	> 10 µM	< 0.2 µM	IC50 [5]: < 0.2 µM
Cc1cc(Nc2ccnc(NCc3cc(C(N)=O)no3)n2)[nH]n1 [Example 4, 5-[[[4-[(5-methyl-2H-pyrazol-3-yl)amino]pyrimidin-2-yl]amino]methyl]isoxazole-3-carboxamide]			> 10 µM		IC50 [1]: < 10 µM; IC50 ([2]; Activity class): 0.1 to 1 µM
